Measurements as given in paper PMC7187627 (Antimicrobial Agents and Chemotherapy, 2019).

Assay: Safety and tolerability (adverse events, laboratory tests, ECG), multiple-ascending-dose phase 1 study
Type: in vivo
Text: Subjects were monitored closely with serial physical examinations, blood evaluations, and 12-lead ECGs. Subjects underwent safety laboratory testing, including measurement of blood cell counts (white blood cell [WBC] with differential, hemoglobin, and platelets), serum chemistry (sodium, potassium, chloride, calcium, bicarbonate, glucose, creatinine, blood urea nitrogen [BUN], creatine kinase [CK], aspartate aminotransferase [AST], alanine aminotransferase [ALT], alkaline phosphatase [ALP], total bilirubin, protein, albumin, amylase, and lipase) and urinalysis (protein, blood, and glucose). Study halting criteria had been established and were reviewed by an independent safety monitor (ISM) and the Safety Monitoring Committee (SMC) prior to proceeding with dosing within a cohort or to the next cohort.
The safety population included all subjects who received at least one dose of the study drug. The safety and tolerability of CRS3123 were evaluated by the sequential review of reported adverse events (AEs), changes from baseline in physical examination findings, vital sign measurements, safety laboratory tests (hematology, clinical chemistry, and urinalysis), and key 12-lead ECG findings. All safety assessments were summarized with descriptive statistics or frequency counts.
The period of observation for AE reporting began on day 1 at the time of study drug administration and continued through the final visit.
All AEs were coded to system organ class (SOC) and preferred term (PT) using the Medical Dictionary for Regulatory Activities (MedDRA), version 17.0 (https://www.meddra.org/). A treatment-emergent AE (TEAE) was defined as any AE that occurred during the study observation period (i.e., from day 1 at the time of study drug administration through the final visit). An AE with a partial onset date was classified as a TEAE if the reported partial onset date could not definitely be identified as before the date of study drug administration. Any AE with a missing onset date or missing time on day of study drug administration was classified as a TEAE.
To count the overall number of subjects who experienced each TEAE and calculation of an occurrence rate, a subject experiencing multiple occurrences of an AE was counted only once for that PT. Similarly, if a subject experienced multiple TEAEs within the same SOC, that subject was counted once to calculate an occurrence rate for the SOC. To count the number of subjects who experienced each TEAE by severity classification (mild, moderate, severe, and life-threatening) and calculate an occurrence rate, a subject experiencing multiple occurrences of an AE of the same severity was counted once in that particular severity classification for that PT. If a subject experienced multiple occurrences of an AE of differing severities, only the most severe occurrence within each PT was counted.

[1] = all TEAEs, Cohort B, 400 mg Q12h (n = 8)
[2] = all TEAEs, Cohort C, 600 mg Q12h (n = 8)
[3] = treatment-related AEs, All active (n = 24)
[4] = treatment-related AEs, Cohort A, 200 mg Q12h (n = 8)
[5] = treatment-related AEs, Cohort B, 400 mg Q12h (n = 8)
[6] = treatment-related AEs, Cohort C, 600 mg Q12h (n = 8)

In the case of `O=c1cc(NCCCN[C@@H]2CCOc3c(Br)cc(Br)cc32)[nH]c2ccsc12` [CRS3123], the “No. (%) of subjects: Dry skin” value [1] is reported as 1 (12.5), the “No. (%) of subjects: Dysgeusia” value [1] is reported as 1 (12.5) and the “No. (%) of subjects: Ear and labyrinth disorders (system organ class)” value [1] is reported as 0 (0.0). The “No. (%) of subjects: Ear discomfort” value [1] was 0 (0.0), the “No. (%) of subjects: Erythema” value [1] was 1 (12.5) and the “No. (%) of subjects: Gastrointestinal disorders (system organ class)” value [1] was 2 (25.0). The “No. (%) of subjects: General disorders and administration site conditions (system organ class)” value [1] was 0 (0.0), the “No. (%) of subjects: Headache” value [1] was 1 (12.5) and the “No. (%) of subjects: Hemoglobin decreased” value [1] was 1 (12.5). The “No. (%) of subjects: Infections and infestations (system organ class)” value [1] was 0 (0.0), the “No. (%) of subjects: Infusion site thrombosis” value [1] was 0 (0.0) and the “No. (%) of subjects: Injury, poisoning, and procedural complications (system organ class)” value [1] was 0 (0.0). For the same compound, the “No. (%) of subjects: Investigations (system organ class)” value (“No. (%) of subjects: Investigations” for short) [1] was 4 (50.0), the “No. (%) of subjects: Lipase increased” value [1] was 2 (25.0) and the “No. (%) of subjects: Myalgia” value [1] was 1 (12.5). For the same compound, the “No. (%) of subjects: Nervous system disorders (system organ class)” value [1] was 2 (25.0), the “No. (%) of subjects: Oropharyngeal pain” value [1] was 0 (0.0) and the “No. (%) of subjects: Psychiatric disorders (system organ class)” value [1] was 0 (0.0). The “No. (%) of subjects: Respiratory, thoracic, and mediastinal disorders (system organ class)” value [1] was 1 (12.5), the “No. (%) of subjects: Skin and subcutaneous tissue disorders (system organ class)” value [1] was 2 (25.0) and the “No. (%) of subjects: Subjects with TEAEs” value [1] was 6 (75.0). The “No. (%) of subjects: Throat irritation” value [1] was 1 (12.5), the “No. (%) of subjects: Upper respiratory tract infection” value [1] was 0 (0.0) and the “No. (%) of subjects: White blood cell count increased” value [1] was 0 (0.0). The “No. (%) of subjects: Alanine aminotransferase increased” value [2] was 2 (25.0), the “No. (%) of subjects: Amylase increased” value [2] was 1 (12.5) and the “No. (%) of subjects: Anxiety” value [2] was 0 (0.0). The “No. (%) of subjects: Arthropod bite” value [2] was 0 (0.0), the “No. (%) of subjects: Aspartate aminotransferase increased” value [2] was 2 (25.0) and the “No. (%) of subjects: Blood bilirubin increased” value [2] was 1 (12.5). The “No. (%) of subjects: Blood calcium increased” value [2] was 0 (0.0), the “No. (%) of subjects: Blood potassium increased” value [2] was 0 (0.0) and the “No. (%) of subjects: Blood pressure, diastolic, decreased” value [2] was 1 (12.5). The “No. (%) of subjects: Blood pressure, diastolic, increased” value [2] was 1 (12.5), the “No. (%) of subjects: Blood pressure, systolic, decreased” value [2] was 0 (0.0) and the “No. (%) of subjects: Blood pressure, systolic, increased” value [2] was 1 (12.5). For the same compound, the “No. (%) of subjects: Diarrhea” value [2] was 0 (0.0), the “No. (%) of subjects: Dry skin” value [2] was 0 (0.0) and the “No. (%) of subjects: Dysgeusia” value [2] was 0 (0.0). The “No. (%) of subjects: Ear and labyrinth disorders (system organ class)” value [2] was 0 (0.0), the “No. (%) of subjects: Ear discomfort” value [2] was 0 (0.0) and the “No. (%) of subjects: Erythema” value [2] was 0 (0.0). The “No. (%) of subjects: Gastrointestinal disorders (system organ class)” value [2] was 0 (0.0), the “No. (%) of subjects: General disorders and administration site conditions (system organ class)” value [2] was 1 (12.5) and the “No. (%) of subjects: Headache” value [2] was 0 (0.0). For the same compound, the “No. (%) of subjects: Hemoglobin decreased” value [2] was 1 (12.5), the “No. (%) of subjects: Infections and infestations (system organ class)” value [2] was 0 (0.0) and the “No. (%) of subjects: Infusion site thrombosis” value [2] was 1 (12.5). For the same compound, the “No. (%) of subjects: Injury, poisoning, and procedural complications (system organ class)” value [2] was 0 (0.0), the “No. (%) of subjects: Investigations” value [2] was 6 (75.0) and the “No. (%) of subjects: Lipase increased” value [2] was 2 (25.0). For the same compound, the “No. (%) of subjects: Musculoskeletal and connective tissue disorders (system organ class)” value [2] was 0 (0.0), the “No. (%) of subjects: Myalgia” value [2] was 0 (0.0) and the “No. (%) of subjects: Nervous system disorders (system organ class)” value [2] was 0 (0.0). The “No. (%) of subjects: Oropharyngeal pain” value [2] was 1 (12.5), the “No. (%) of subjects: Psychiatric disorders (system organ class)” value [2] was 0 (0.0) and the “No. (%) of subjects: Respiratory, thoracic, and mediastinal disorders (system organ class)” value [2] was 1 (12.5). The “No. (%) of subjects: Skin and subcutaneous tissue disorders (system organ class)” value [2] was 0 (0.0), the “No. (%) of subjects: Subjects with TEAEs” value [2] was 6 (75.0) and the “No. (%) of subjects: Throat irritation” value [2] was 0 (0.0). The “No. (%) of subjects: Upper respiratory tract infection” value [2] was 0 (0.0), the “No. (%) of subjects: White blood cell count increased” value [2] was 0 (0.0) and the “withdrawals due to TEAEs” value (all doses) was “No subjects were withdrawn”. For the same compound, the “No. (%) of subjects: Alanine aminotransferase increased” value [3] was 1 (4.2), the “No. (%) of subjects: Diarrhea” value [3] was 1 (4.2) and the “No. (%) of subjects: Dysgeusia” value [3] was 1 (4.2). For the same compound, the “No. (%) of subjects: Gastrointestinal disorders (system organ class)” value [3] was 1 (4.2), the “No. (%) of subjects: Investigations” value [3] was 1 (4.2) and the “No. (%) of subjects: Lipase increased” value [3] was 0 (0.0). For the same compound, the “No. (%) of subjects: Nervous system disorders (system organ class)” value [3] was 1 (4.2), the “No. (%) of subjects: Subjects with TEAEs” value [3] was 3 (12.5) and the “No. (%) of subjects: Alanine aminotransferase increased” value [4] was 0 (0.0). The “No. (%) of subjects: Diarrhea” value [4] was 0 (0.0), the “No. (%) of subjects: Dysgeusia” value [4] was 0 (0.0) and the “No. (%) of subjects: Gastrointestinal disorders (system organ class)” value [4] was 0 (0.0). For the same compound, the “No. (%) of subjects: Investigations” value [4] was 0 (0.0), the “No. (%) of subjects: Lipase increased” value [4] was 0 (0.0) and the “No. (%) of subjects: Nervous system disorders (system organ class)” value [4] was 0 (0.0). The “No. (%) of subjects: Alanine aminotransferase increased” value [5] was 0 (0.0), the “No. (%) of subjects: Diarrhea” value [5] was 1 (12.5) and the “No. (%) of subjects: Dysgeusia” value [5] was 1 (12.5). For the same compound, the “No. (%) of subjects: Gastrointestinal disorders (system organ class)” value [5] was 1 (12.5), the “No. (%) of subjects: Investigations” value [5] was 0 (0.0) and the “No. (%) of subjects: Lipase increased” value [5] was 0 (0.0). For the same compound, the “No. (%) of subjects: Nervous system disorders (system organ class)” value [5] was 1 (12.5), the “No. (%) of subjects: Alanine aminotransferase increased” value [6] was 1 (12.5) and the “No. (%) of subjects: Diarrhea” value [6] was 0 (0.0). The “No. (%) of subjects: Dysgeusia” value [6] was 0 (0.0), the “No. (%) of subjects: Gastrointestinal disorders (system organ class)” value [6] was 0 (0.0) and the “No. (%) of subjects: Investigations” value [6] was 1 (12.5). The “No. (%) of subjects: Lipase increased” value [6] was 0 (0.0), the “No. (%) of subjects: Nervous system disorders (system organ class)” value [6] was 0 (0.0) and the “severity of TEAEs” value (whole study) was “majority of TEAEs reported in the study were of mild severity”.
